For test [1], the target named is T1, DAT (Rattus norvegicus, UniProt P23977).
T1 construct: rat striatum was the source for DAT, and cerebral cortex for SERT and NET; from tissue; P2 synaptosomal fraction for uptake
The conditions noted are these: Table 2; values marked b: See reference # 22; read-out: DAT binding, IC50, [3H]Win 35,428; cited from earlier work.

Test [2] addresses T2, SERT (Rattus norvegicus, UniProt P31652).
T2 construct: rat striatum was the source for DAT, and cerebral cortex for SERT and NET; from tissue; host or cells: rat cerebral cortex
The experiment in a line: Inhibition of [3H]citalopram binding to SERT. Here is the method:
(§1) Biology. […] Briefly, rat striatum was the source for DAT, and cerebral cortex for SERT and NET. […] Test compounds were dissolved in dimethyl sulfoxide (DMSO) and diluted out in 10% (v/v) DMSO. […] At least five triplicate concentrations of each test compound were studied, spaced evenly around the IC50 value. For DAT uptake assays, uptake of 50 nM [^3H]DA into rat striatal synaptosomes was measured exactly as described by us previously. Briefly, rat striatal P2 membrane fractions were incubated with test compounds for 8 min followed by the additional presence of [^3H]DA for 4 min at 25?. […] Construction of inhibition curves and dissolvement of test compounds were as described above.

Test [3] deals with T1, DAT. The experiment in a line: Inhibition of [3H]DA uptake by DAT into rat striatal synaptosomes. It counts as biochemical.
For test [4], the target named is NET (Rattus norvegicus, UniProt Q9WTR4). The experiment in a line: Inhibition of [3H]nisoxetine binding to NET. The conditions noted are these: Table 2; average ± SEM; read-out: NET binding, IC50 [3H]nisoxetine. How it is done:
as §1

Test [5] deals with NET. The test is described as follows: Inhibition of [3H]nisoxetine binding to NET. More on the design: species or system rat. The conditions noted are these: Table 3; selectivity ratio of IC50 values. Here is the method:
as §1

Test [6] deals with T1, DAT. The test is described as follows: Inhibition of [3H]WIN 35,428 binding to DAT.
Test [7] concerns the target T3, NET (Rattus norvegicus, UniProt Q63380).
T3 construct: from tissue
The experiment in a line: NET uptake inhibition, [3H]NE. The conditions noted are these: in vitro data, Table 4. It is filed as biochemical.

In the next test the target is T4, NET (Rattus norvegicus).
T4 construct: from tissue
T4 sequence (Q63380 1-617): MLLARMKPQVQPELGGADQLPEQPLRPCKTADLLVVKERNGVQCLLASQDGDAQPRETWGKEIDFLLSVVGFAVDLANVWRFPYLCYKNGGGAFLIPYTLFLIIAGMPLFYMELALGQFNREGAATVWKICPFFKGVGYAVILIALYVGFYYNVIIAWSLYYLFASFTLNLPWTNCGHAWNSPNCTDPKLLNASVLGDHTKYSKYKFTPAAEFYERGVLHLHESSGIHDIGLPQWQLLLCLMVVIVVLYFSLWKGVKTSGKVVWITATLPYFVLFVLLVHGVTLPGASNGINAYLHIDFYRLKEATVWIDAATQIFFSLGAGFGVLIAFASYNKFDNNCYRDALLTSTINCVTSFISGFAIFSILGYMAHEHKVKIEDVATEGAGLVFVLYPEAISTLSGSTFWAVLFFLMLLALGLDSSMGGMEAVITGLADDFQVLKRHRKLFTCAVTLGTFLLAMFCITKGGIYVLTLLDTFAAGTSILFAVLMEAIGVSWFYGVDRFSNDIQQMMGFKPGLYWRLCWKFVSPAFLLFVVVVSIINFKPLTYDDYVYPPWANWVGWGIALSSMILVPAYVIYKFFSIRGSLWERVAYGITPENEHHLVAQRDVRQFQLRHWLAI
The test is described as follows: NET uptake inhibition, [3H]NE. The conditions noted are these: Table 4; rat brain. It is filed as biochemical.

For test [8], the target named is T2, SERT. The test is described as follows: SERT uptake inhibition, [3H]5-HT. It counts as biochemical.

Like-named read-outs stand apart in the source and are kept apart here.

The term IC50 denotes the concentration needed to halve the response being measured.

T1 sequence (P23977 whole entry): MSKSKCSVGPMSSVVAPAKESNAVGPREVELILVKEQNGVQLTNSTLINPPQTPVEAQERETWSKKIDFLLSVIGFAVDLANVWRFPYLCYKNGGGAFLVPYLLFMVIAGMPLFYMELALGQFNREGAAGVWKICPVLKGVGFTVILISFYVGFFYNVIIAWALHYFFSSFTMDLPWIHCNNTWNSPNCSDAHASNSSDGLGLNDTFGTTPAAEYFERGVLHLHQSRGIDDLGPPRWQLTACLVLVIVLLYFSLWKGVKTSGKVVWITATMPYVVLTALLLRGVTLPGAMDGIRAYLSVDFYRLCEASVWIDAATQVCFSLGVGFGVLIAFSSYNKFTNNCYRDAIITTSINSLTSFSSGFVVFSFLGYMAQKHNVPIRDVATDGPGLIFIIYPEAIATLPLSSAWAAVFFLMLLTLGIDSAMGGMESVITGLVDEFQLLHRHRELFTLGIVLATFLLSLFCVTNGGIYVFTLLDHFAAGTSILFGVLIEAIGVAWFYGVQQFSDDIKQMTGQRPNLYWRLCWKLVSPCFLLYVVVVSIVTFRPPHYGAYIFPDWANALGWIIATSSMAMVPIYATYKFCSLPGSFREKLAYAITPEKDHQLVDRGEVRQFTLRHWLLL
T2 sequence (P31652 whole entry): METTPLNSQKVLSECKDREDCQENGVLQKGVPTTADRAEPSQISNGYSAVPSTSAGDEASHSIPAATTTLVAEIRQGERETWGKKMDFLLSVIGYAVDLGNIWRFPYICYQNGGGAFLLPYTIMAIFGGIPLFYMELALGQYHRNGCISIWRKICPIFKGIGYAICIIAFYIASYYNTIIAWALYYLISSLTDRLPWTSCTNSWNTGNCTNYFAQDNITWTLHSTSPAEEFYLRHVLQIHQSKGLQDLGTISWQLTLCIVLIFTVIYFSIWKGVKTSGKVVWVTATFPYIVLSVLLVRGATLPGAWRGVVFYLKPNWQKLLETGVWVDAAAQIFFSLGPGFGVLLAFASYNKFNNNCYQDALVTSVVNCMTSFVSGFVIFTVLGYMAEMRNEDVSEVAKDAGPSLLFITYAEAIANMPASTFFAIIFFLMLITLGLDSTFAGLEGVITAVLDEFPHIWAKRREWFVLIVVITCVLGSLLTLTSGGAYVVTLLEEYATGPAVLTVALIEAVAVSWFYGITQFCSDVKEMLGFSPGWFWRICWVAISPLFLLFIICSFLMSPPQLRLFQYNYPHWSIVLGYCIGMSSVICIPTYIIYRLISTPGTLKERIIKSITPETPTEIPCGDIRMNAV
T3 sequence (Q63380 1-617): as the sequence (Q63380 1-617) above

Regarding `Fc1ccc(CN[C@H]2CC[C@@H](C(c3ccccc3)c3ccccc3)OC2)cc1` (relative stereo) [Compound 16b, Cis-(6-benzhydryl-tetrahydropyran-3-yl)-(4-fluoro-benzyl)-amine], the IC50 on DAT [1] was 0.163 µM; at SERT [2] (Table 2, average ± SEM, read-out: SERT binding, IC50 [3H]citalopram), 1.86 µM; on DAT [3] (Table 2, average ± SEM, read-out: DAT uptake, IC50 [3H]DA) it was 0.146 ± 0.036 µM; on NET [4] it was 0.232 ± 0.046 µM. The “SERT binding/DAT binding” value at SERT [2] (Table 3, selectivity ratio of IC50 values) was found to be 11.4. For the same compound, at DAT [3] (Table 3, ratio of IC50 values), the “[3H]DA uptake/DAT binding” value was found to be 0.96. Also, the “NET binding/DAT binding” value in the test on NET [5] is 1.4.

Consider `O[C@@H]1C[C@@H](C(c2ccccc2)c2ccccc2)OC[C@H]1NCc1ccc(F)cc1` [(−)-29b, (2S,4R,5R)-2-benzhydryl-5-(4-fluoro-benzylamino)-tetrahydro-pyran-4-ol], for which the IC50 on DAT [6] is 0.308 ± 0.025 µM; against NET (Rattus norvegicus), 0.0133 ± 0.001 µM; against DAT [3] it was 0.169 ± 0.02 µM; on SERT [8], 0.676 ± 0.033 µM. Further, the “selectivity for the NET (NRI profile), in words” value is given as “selective blockers for NET” on NET [7] and “more selective for the NET” at NET [7] (listed as (−)29b).

The values are drawn from patent US8017791B2, “Tri-substituted 2-benzhydryl-5-benzylamino-tetrahydro-pyran-4-ol and 6-benzhydryl-4-benzylamino-tetrahydro-pyran-3-ol analogues, and novel, 3,6-disubstituted pyran derivatives” (Wayne State University, priority 2003, dated 2011).
